Test results reported in US20030232851A1, “Viral treatment” (The Procter & Gamble Company, priority 1999, published 2003).
In brackets after ≈: the same amount, converted by molar mass. Several values for one entry are separate records, joined by “and”; a condition that tells them apart may be missing. Identical values can stand only once.

What was measured:
Assay type in all cases: cell-based
[1] = system: HIV-1 cell line, U937IIIB; experiment: Long term in vitro study, U937IIIB, reverse transcriptase; parameters: reverse transcriptase data: unit not given here
Protocol: A microtiter-based reveres transcriptase (RT) reaction is utilized (Buckheit et al (1991) AIDS Research and Human Retroviruses 7:295-302). Tritiated thymidine triphosphate (NEN)(TTP) is resuspended in distilled water at 5 Ci/ml. Poly rA and oligo dT are prepared as a stock solution which is kept at −20° C. The RT reaction buffer is prepared fresh on a daily basis and consists of 125 μl 1M EGTA, 125 μl water, 125 μl Triton X-100, 50 μl Tris (pH 7.4), 50 μl 1 MDDT, and 40 μl 1M MgCl2. These three solutions are mixed together in a ratio of 1 part TTP, 2.5 parts poly rA:oligo dT, 2.5 parts reaction buffer and 4 parts distilled water. Ten microliters of this reaction mixture is placed in a round bottom microtiter place and 15 μl of virus containing supernatant is added and mixed. The plate is incubated at 37° C. for 60 minutes. Following reaction, the reaction volume is spotted onto filter mats, washed 6 times for 5 minutes each in a 5% sodium phosphate buffer, 2 times for 1 minute each in distilled water, 2 times for 1 minute each in 70% ethanol, and then dried. The dried filter mat is placed in a plastic sample bag, Betaplate scintillation fluid is added and the bag is heat sealed. Incorporated radioactivity is quantified utilizing a Wallac Microbeta scintillation counter.
Acute infection of most established human cell lines with HIV-1 results in the eventual establishment of a constitutive virus-producing chronically infected cell line. The cells can be passaged for long periods of time in culture without loss of virus production. These cells may be utilized to evaluate the effects of anti-HIV compounds on syncytium formation or to evaluate the effects of anti-HIV compounds on levels of virus production from these cells. […] Each of the cells contains an integrated HIV genome or provirus. Chronically infected CEM, H9 and U937 cell lines have been prepared and cultured by Southern Research Institute, Frederick Md. and are available from them.
CEM-SS cells chronically infected with HIV isolate, for example SKI (CEM-SKI) are cultured in RPMI1640 tissue culture medium supplemented with 10% fetal bovine serum and antibiotics. […] CEM-SKI or other infected cells with no added drug are used as the control cells. Cells are allowed to grow to a density of approximately 1×10^6 cells/ml and are then passaged at a 1:10 dilution. […] The drug concentration in the flask is then increased two-fold and the cells maintained as above.
The cell populations contain integrated copies of the HIV genome and constitutively produce HIV at relatively high levels or are latently infected and only produce virus after stimulation with phorbol esters, tumor necrosis factor or IL6 (U1 and ACH2). Reductions in virus products were observed when quantifying supernatant reverse transcriptase activity,
A long term in vitro study of 2-(2-thienyl)-imidazolo [4,5-b]pyridine against an HIV-1 cell line, U9371IIIB was conducted at three different levels. The results with U937IIIB cells were reported at weekly intervals.

[2] = system: hepatitis B, HEPG22.2.15; experiment: In vitro virus production test of hepatitis B, DNA copy number
[3] = system: TPA-induced BCBL-1 cells; experiment: Kaposi's Sarcoma test: toxicity values; parameters: Toxicity Values, samples 1-3 / Toxicity Values, average: scale not given here
Protocol: (§1) The DNA copy number and the toxicity value were measured and compared with Cidofovir.

[4] = Kaposi's Sarcoma test: toxicity values; parameters: Toxicity Values, samples 1-3 / Toxicity Values, average: scale not given here; settings: human, TPA-induced BCBL-1 cells (HHV8 cell line); read-out: TC50 (the source's name)
Protocol: as §1

Structure (SMILES): c1csc(-c2nc3cccnc3[nH]2)c1 [2-(2-thienyl)-imidazolo [4,5-b]pyridine]
- reverse transcriptase data ([1]; 7 μg/ml, day 4): 2100
- reverse transcriptase data ([1]; 7 μg/ml, day 11): 2205
- reverse transcriptase data ([1]; 7 μg/ml, day 18): 2245
- reverse transcriptase data ([1]; 7 μg/ml, day 25): 2212
- reverse transcriptase data ([1]; 7 μg/ml, day 32): 2347
- reverse transcriptase data ([1]; 7 μg/ml, day 39): 2516
- reverse transcriptase data ([1]; 7 μg/ml, day 46): 1968
- reverse transcriptase data ([1]; 7 μg/ml, day 53): 1695
- reverse transcriptase data ([1]; 7 μg/ml, day 60): 2887
- reverse transcriptase data ([1]; 7 μg/ml, day 67): 4170
- reverse transcriptase data ([1]; 7 μg/ml, day 71): 7786
- reverse transcriptase data ([1]; 7 μg/ml, day 74): 6119
- reverse transcriptase data ([1]; 7 μg/ml, day 88): 6880
- reverse transcriptase data ([1]; 7 μg/ml, day 95): 5041
- reverse transcriptase data ([1]; 7 μg/ml, day 102): 5072
- reverse transcriptase data ([1]; 7 μg/ml, day 109): 7437
- reverse transcriptase data ([1]; 15 μg/ml, day 4): 1188
- reverse transcriptase data ([1]; 15 μg/ml, day 11): 713
- reverse transcriptase data ([1]; 15 μg/ml, day 18): 993
- reverse transcriptase data ([1]; 15 μg/ml, day 25): 1900
- reverse transcriptase data ([1]; 15 μg/ml, day 32): 2003
- reverse transcriptase data ([1]; 15 μg/ml, day 39): 1326
- reverse transcriptase data ([1]; 15 μg/ml, day 46): 987
- reverse transcriptase data ([1]; 15 μg/ml, day 53): 1221
- reverse transcriptase data ([1]; 15 μg/ml, day 60): 1205
- reverse transcriptase data ([1]; 15 μg/ml, day 67): 2314
- reverse transcriptase data ([1]; 15 μg/ml, day 71): 4265
- reverse transcriptase data ([1]; 15 μg/ml, day 74): 5689
- reverse transcriptase data ([1]; 15 μg/ml, day 88): 6832
- reverse transcriptase data ([1]; 15 μg/ml, day 95): 4988
- reverse transcriptase data ([1]; 15 μg/ml, day 102): 3912
- reverse transcriptase data ([1]; 15 μg/ml, day 109): 4294
- reverse transcriptase data ([1]; 30 μg/ml, day 4): 996
- reverse transcriptase data ([1]; 30 μg/ml, day 11): 180
- reverse transcriptase data ([1]; 30 μg/ml, day 18): 417
- reverse transcriptase data ([1]; 30 μg/ml, day 25): 588
- reverse transcriptase data ([1]; 30 μg/ml, day 32): 716
- reverse transcriptase data ([1]; 30 μg/ml, day 39): 625
- reverse transcriptase data ([1]; 30 μg/ml, day 46): 542
- reverse transcriptase data ([1]; 30 μg/ml, day 53): 208
- reverse transcriptase data ([1]; 30 μg/ml, day 60): 504
- reverse transcriptase data ([1]; 30 μg/ml, day 67): 782
- reverse transcriptase data ([1]; 30 μg/ml, day 71): 1414
- reverse transcriptase data ([1]; 30 μg/ml, day 74): 1059
- reverse transcriptase data ([1]; 30 μg/ml, day 88): 1811
- reverse transcriptase data ([1]; 30 μg/ml, day 95): 1988
- reverse transcriptase data ([1]; 30 μg/ml, day 102): 1695
- reverse transcriptase data ([1]; 30 μg/ml, day 109): 1542
- reverse transcriptase data on continuation (in words) ([1]; run through 242 days): data remained consistent
- DNA Copy Number, % virus control ([2]; 0.64 μg/ml): 75.3%
- DNA Copy Number, mean ([2]; 0.64 μg/ml): 255.6 per 3 μl
- DNA Copy Number, samples 1-3 ([2]; 0.64 μg/ml): 249.2 per 3 μl and 255.9 per 3 μl and 261.6 per 3 μl
- DNA Copy Number, % virus control ([2]; 2 μg/ml): 39.8%
- DNA Copy Number, mean ([2]; 2 μg/ml): 134.8 per 3 μl
- DNA Copy Number, samples 1-3 ([2]; 2 μg/ml): 134.5 per 3 μl and 124.2 per 3 μl and 145.8 per 3 μl
- DNA Copy Number, % virus control ([2]; 6.4 μg/ml): 8.2%
- DNA Copy Number, mean ([2]; 6.4 μg/ml): 27.9 per 3 μl
- DNA Copy Number, % virus control ([2]; 20 μg/ml): 0.8%
- DNA Copy Number, mean ([2]; 20 μg/ml): 2.7 per 3 μl
- DNA Copy Number, % virus control ([2]; 64 μg/ml): 0.1%
- DNA Copy Number, mean ([2]; 64 μg/ml): 0.4 per 3 μl
- DNA Copy Number, % virus control ([2]; 200 μg/ml): 0%
- DNA Copy Number, mean ([2]; 200 μg/ml): 0.1 per 3 μl
- IC50 ([2]; HepG2 2.2.15, first experiment): 1.6 µg/mL (≈ 7.95 µM)
- IC50 ([2]; HepG2 2.2.15, replicate experiment): 10.7 µg/mL (≈ 53.2 µM)
- Toxicity Values, % cell control ([3]; 0.64 μM): 110.5%
- Toxicity Values, average ([3]; 0.64 μM): 1.160
- Toxicity Values, samples 1-3 ([3]; 0.64 μM): 1.034 and 1.201 and 1.245
- Toxicity Values, % cell control ([3]; 2 μM): 111.7%
- Toxicity Values, average ([3]; 2 μM): 1.172
- Toxicity Values, samples 1-3 ([3]; 2 μM): 1.155 and 1.182 and 1.179
- Toxicity Values, % cell control ([3]; 6.4 μM): 111.5%
- Toxicity Values, average ([3]; 6.4 μM): 1.170
- Toxicity Values, samples 1-3 ([3]; 6.4 μM): 1.198 and 1.119 and 1.193
- Toxicity Values, % cell control ([3]; 20 μM): 69.5%
- Toxicity Values, average ([3]; 20 μM): 0.729
- Toxicity Values, samples 1-3 ([3]; 20 μM): 0.701 and 0.706 and 0.782
- Toxicity Values, % cell control ([3]; 64 μM): 1.5%
- Toxicity Values, average ([3]; 64 μM): 0.016
- Toxicity Values, samples 1-3 ([3]; 64 μM): 0.020 and 0.016 and 0.013
- Toxicity Values, % cell control ([3]; 200 μM): 6.4%
- Toxicity Values, average ([3]; 200 μM): 0.067
- Toxicity Values, samples 1-3 ([3]; 200 μM): 0.068 and 0.067
- CC50 [4]: 32.6 µM
